Read-outs that look alike come from different tables or passages of the source.
Tests used:
[1] = tested on: experimentally induced NE (Eimeria spp. and Clostridium perfringens challenge); format: in vivo, male Ross 308 broilers
[2] = tested on: necrotic enteritis (Clostridium perfringens inoculations); format: in vivo, male Ross 308 broilers; settings: for NE score: four chickens per pen
E. acervulina = assay: Coccidiosis lesion scoring (Johnson and Reid, 0-4); format: in vivo, male Ross 308 broilers; settings: score 0 (no lesions) to 4 (severe lesions)
E. maxima = assay: Coccidiosis lesion scoring (Johnson and Reid, 0-4); format: in vivo, male Ross 308 broilers; settings: score 0 (no lesions) to 4 (severe lesions)
[3] = tested on: Eimeria (overall coccidiosis lesions); assay: Overall coccidiosis lesions (TMLS); format: in vivo, male Ross 308 broilers
[4] = compared to some amino acids such as glycine or arginine; cited from earlier work
[5] = day 16 to day 22, challenge period

N=C(N)NCC(=O)O [GAA, guanidinoacetic acid]
Effect on daily feed intake (DFI) over untreated birds ([1]; any period (p>0.05) except a small effect in the pre-challenge period): no significant effect | FCR compared with untreated birds ([1]; challenge period and overall): significantly lower | Daily weight gain (DWG) compared with IUC birds ([1]; challenge period from day 16 to d22): significantly higher | BW_D0 (body weight) ([1]; day 0, before challenge, treatment mean): 46 | DFI_D0-D16 (daily feed intake) ([1]; day 0 to day 16, pre-challenge): 45.9 | DWG_D0-D16 (daily weight gain) ([1]; day 0 to day 16, pre-challenge): 41.0 | FCR_D0-D16 (feed conversion ratio) ([1]; day 0 to day 16, pre-challenge): 1.12 | DFI_D0-D42 (daily feed intake) ([1]; day 0 to day 42, overall): 112.1 | DWG_D0-D42 (daily weight gain) ([1]; day 0 to day 42, overall): 62.6 | FCR_D0-42 (feed conversion ratio) ([1]; day 0 to day 42, overall): 1.80 | BW_D16 (body weight) ([1]; day 16, treatment mean): 711 | DFI_D16-D22 (daily feed intake) [1, 5]: 84.4 | DWG_D16-D22 (daily weight gain) [1, 5]: 72.2 | FCR_D16-D22 (feed conversion ratio) [1, 5]: 1.18 | BW_D22 (body weight) ([1]; day 22, after NE challenge, treatment mean): 1161 | DFI_D22-D34 (daily feed intake) ([1]; day 22 to day 34): 117.3 | DWG_D22-D34 (daily weight gain) ([1]; day 22 to day 34): 75.3 | FCR_D22-D34 (feed conversion ratio) ([1]; day 22 to day 34): 1.56 | BW_D34 (body weight) ([1]; day 34, treatment mean): 2463 | DFI_D34-D42 (daily feed intake) ([1]; day 34 to day 42): 191.0 | DWG_D34-D42 (daily weight gain) ([1]; day 34 to day 42): 108.7 | FCR_D34-D42 (feed conversion ratio) ([1]; day 34 to day 42): 1.77 | BW_D42 (body weight) ([1]; day 42, treatment mean): 3332 | Weight gained more than the negative control ([1]; grower phase): approximately 9 g/day | Weight gained more than the negative control ([1]; overall): approximately 2 g/day | Percentage of NE related mortalities ([1]; overall, on par with antibiotics treated control): strongly reduced | NE related mortality ([1]; percentage of NE related mortalities, overall): 3.33 | NE percentage (percentage of NE affected birds) ([2]; day 21): 85 | NE score ([2]; day 21): 3.52 | NE percentage (percentage of NE affected birds) ([2]; day 22): 73 | NE scores and percentage of NE affected birds compared with untreated control ([2]; day 22): lower NE scores and a lower percentage of NE affected birds | NE score ([2]; day 22): 2.33 | E. acervulina (lesion score) (E. acervulina; day 21): 0.08 | E. acervuline (lesion score) (E. acervulina; day 22): 0.06 | E. maxima (lesion score) (E. maxima; day 21): 0.52 | E. maxima (lesion score) (E. maxima; day 22): 0.88 | E. maxima and coccidiosis lesions compared with untreated control ([3]; day 21): lower amounts | TMLS (overall coccidiosis lesions) ([3]; day 21): 0.60 | TMLS (overall coccidiosis lesions) ([3]; day 22): 0.94 | Solubility in water [4]: rather low solubility in water

Reference: US20260232610A1 (priority 2023, published 2026)
